In ChEMBL document CHEMBL3046346, “Synthesis and analgesic, anti-inflammatory activities of 3-(3-methoxyphenyl)-2-substituted amino-quinazolin-4(3H)-ones” (Med Chem Res, 2011):

Legend:
[1] = system: Rattus norvegicus; experiment: Gastrointestinal toxicity in fasted Rattus norvegicus Wistar albino (rat) assessed as ulcer index at 20 mg/kg, ip measured after 4 hr; assay type: organism-based; parameters: dose 20 mg/kg, route intraperitoneal; details: in vivo
[2] = system: Rattus norvegicus; experiment: Anti-inflammatory activity in Rattus norvegicus (rat) assessed as inhibition of carrageenan-induced paw edema at 10 mg/kg, po measured at 3 hr; assay type: functional
[3] = system: Rattus norvegicus; experiment: Anti-inflammatory activity in Rattus norvegicus (rat) assessed as inhibition of carrageenan-induced paw edema at 10 mg/kg, po measured at 2 hr; assay type: functional
[4] = system: Rattus norvegicus; experiment: Anti-inflammatory activity in Rattus norvegicus (rat) assessed as inhibition of carrageenan-induced paw edema at 10 mg/kg, po measured at 1 hr; assay type: functional
[5] = system: Rattus norvegicus; experiment: Anti-inflammatory activity in Rattus norvegicus (rat) assessed as inhibition of carrageenan-induced paw edema at 10 mg/kg, po measured at 30 min; assay type: functional; details: 0.5 h
[6] = system: Mus musculus; experiment: […] activity in Mus musculus Wistar albino (mouse) at 10 mg/kg, po after 3 hr by tail-flick test; assay type: functional
[7] = system: Mus musculus; experiment: […] activity in Mus musculus Wistar albino (mouse) at 10 mg/kg, po after 2 hr by tail-flick test; assay type: functional
[8] = system: Mus musculus; experiment: […] activity in Mus musculus Wistar albino (mouse) at 10 mg/kg, po after 1 hr by tail-flick test; assay type: functional
[9] = system: Mus musculus; experiment: […] activity in Mus musculus Wistar albino (mouse) at 10 mg/kg, po after 30 min by tail-flick test; assay type: functional

SMILES	UI [1]	inhibition in vivo at 10 mg/kg [2] [%]	inhibition in vivo at 10 mg/kg [3] [%]	inhibition in vivo at 10 mg/kg [4] [%]	inhibition in vivo at 10 mg/kg [5] [%]	Activity [6] [%]	Activity [7] [%]	Activity [8] [%]	Activity [9] [%]
CCC(CC)=NNc1nc2ccccc2c(=O)n1-c1cccc(OC)c1	0.51	34	53	48	45	38	66	61	56
CCC/C(C)=N/Nc1nc2ccccc2c(=O)n1-c1cccc(OC)c1	0.58	34	49	47	42	41	68	64	57
COc1cccc(-n2c(NN=C3CCCCC3)nc3ccccc3c2=O)c1	0.61	31	43	40	37	38	53	49	46
COc1cccc(-n2c(N/N=C(\C)c3ccccc3)nc3ccccc3c2=O)c1	0.62	32	45	42	39	36	51	46	44
COc1cccc(-n2c(N/N=C3/C(=O)Nc4ccccc43)nc3ccccc3c2=O)c1	–	31	40	37	35	36	46	43	39
COc1cccc(-n2c(N/N=C\c3ccccc3)nc3ccccc3c2=O)c1	–	31	47	38	35	35	47	47	40
COc1cccc(-n2c(N/N=C\c3ccccc3Cl)nc3ccccc3c2=O)c1	–	27	37	33	29	33	42	39	32
COc1cccc(-n2c(N/N=C\c3ccc(Cl)cc3)nc3ccccc3c2=O)c1	–	27	37	36	33	34	42	40	34
COc1cccc(-n2c(N/N=C\c3ccccc3[N+](=O)[O-])nc3ccccc3c2=O)c1	–	27	38	35	35	36	45	41	35
COc1cccc(-n2c(N/N=C\c3ccc([N+](=O)[O-])cc3)nc3ccccc3c2=O)c1	–	29	37	35	33	36	42	40	35
COc1ccc(/C=N\Nc2nc3ccccc3c(=O)n2-c2cccc(OC)c2)cc1	–	27	37	35	29	30	41	37	30
COc1cccc(-n2c(N/N=C\c3ccccc3C)nc3ccccc3c2=O)c1	–	30	42	41	36	34	51	45	39
COc1cccc(-n2c(N/N=C\c3ccc(C)cc3)nc3ccccc3c2=O)c1	–	28	40	35	32	37	50	48	44
COc1cccc(-n2c(NN=C(c3ccccc3)c3ccccc3)nc3ccccc3c2=O)c1	–	30	41	38	33	36	49	46	41
CC/C(C)=N/Nc1nc2ccccc2c(=O)n1-c1cccc(OC)c1	0.53	32	46	45	41	37	61	58	53
CC(=O)Oc1ccccc1C(=O)O [ASPIRIN]	1.73	–	–	–	–	–	–	–	–
O=C([O-])Cc1ccccc1Nc1c(Cl)cccc1Cl.[Na+] [DICLOFENAC SODIUM]	1.65	33	39	38	32	33	45	43	37
